Source: PubChem BioAssay (NCI)
Several values for one entry are separate records, joined by “and”; a condition that tells them apart may be missing. Identical values can stand only once.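 A five-concentration, 48-hour dose response in 96-well plates underlies each endpoint, interpolated linearly between surrounding concentrations. GI50 = concentration required for 50% inhibition of growth. TGI is the concentration that stops growth completely.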

What was measured:
Assay in all cases: DTP human tumour cell line panel, 48 h
UO-31 renal = system: UO-31 renal
U251 CNS = system: U251 CNS
SK-MEL-2 melanoma = system: SK-MEL-2 melanoma
OVCAR-3 ovarian = system: OVCAR-3 ovarian
K-562 leukemia = system: K-562 leukemia
NCI/ADR-RES ovarian = system: NCI/ADR-RES ovarian
CAKI-1 renal = system: CAKI-1 renal
CCRF-CEM leukemia = system: CCRF-CEM leukemia
A549 NSCLC = system: A549 NSCLC
KM12 colon = system: KM12 colon

## CCC1=C(c2ccc(OC)cc2)CC[C@]2(CCNC2=O)[C@@H]1C
UO-31 renal
  TGI: 66.3 µM
U251 CNS
  TGI: 86.4 µM
SK-MEL-2 melanoma
  TGI: 52.4 µM
OVCAR-3 ovarian
  TGI: 61.4 µM
K-562 leukemia
  TGI: 48.7 µM
NCI/ADR-RES ovarian
  TGI: > 92.2 µM
CAKI-1 renal
  TGI: > 89.7 µM
CCRF-CEM leukemia
  TGI: 60.8 µM
A549 NSCLC
  TGI: > 100 µM
KM12 colon
  TGI: > 91.7 µM

## CN1CC[C@]23c4c5ccc(O)c4OC2c2[nH]ncc2C[C@H]3[C@H]1C5 (stereo partly specified)
UO-31 renal
  TGI: > 100 µM
U251 CNS
  TGI: > 100 µM
SK-MEL-2 melanoma
  TGI: > 100 µM
OVCAR-3 ovarian
  TGI: > 100 µM
K-562 leukemia
  TGI: > 100 µM
NCI/ADR-RES ovarian
  TGI: > 100 µM
CAKI-1 renal
  TGI: > 100 µM
CCRF-CEM leukemia
  TGI: > 100 µM
A549 NSCLC
  TGI: > 100 µM
KM12 colon
  TGI: > 100 µM

## CCOC(=O)n1c2ccccc2c(=O)n1CCO
UO-31 renal
  TGI: > 100 µM
U251 CNS
  TGI: > 100 µM
SK-MEL-2 melanoma
  TGI: > 100 µM
OVCAR-3 ovarian
  TGI: > 100 µM
K-562 leukemia
  TGI: > 100 µM
NCI/ADR-RES ovarian
  TGI: > 100 µM
CAKI-1 renal
  TGI: > 100 µM
CCRF-CEM leukemia
  TGI: > 100 µM
A549 NSCLC
  TGI: > 100 µM
KM12 colon
  TGI: > 100 µM

## CC(=O)OC1COC(Oc2c(C)c3c4c(c2O)[C@@H](C)CC[C@@H]4[C@@H](C)C[C@H]3C=C(C)C)C(O)C1O (stereo partly specified)
UO-31 renal
  GI50: 25.1 µM
  TGI: > 100 µM
U251 CNS
  GI50: 19.5 µM
  TGI: 41.6 µM
SK-MEL-2 melanoma
  GI50: 47.1 µM
  TGI: > 100 µM
OVCAR-3 ovarian
  GI50: 16.1 µM
  TGI: 31.3 µM
K-562 leukemia
  GI50: 10.3 µM
  TGI: 27.1 µM
NCI/ADR-RES ovarian
  GI50: 15.3 µM
  TGI: 31.3 µM
CAKI-1 renal
  GI50: 16 µM
  TGI: 30.9 µM
CCRF-CEM leukemia
  GI50: 11.1 µM
  TGI: 35.6 µM
A549 NSCLC
  GI50: 16.8 µM
  TGI: 43.7 µM
KM12 colon
  GI50: 17.7 µM
  TGI: 33.8 µM

## COC(=O)c1ccc2c(c1)C(=O)c1c-2n(CCCCl)c(=O)c2cc(OC)c(OC)cc12
UO-31 renal
  GI50: > 100 µM
  TGI: > 100 µM
U251 CNS
  GI50: > 100 µM
  TGI: > 100 µM
SK-MEL-2 melanoma
  GI50: > 100 µM
  TGI: > 100 µM
OVCAR-3 ovarian
  GI50: > 100 µM
  TGI: > 100 µM
K-562 leukemia
  GI50: > 100 µM
  TGI: > 100 µM
NCI/ADR-RES ovarian
  GI50: > 100 µM
  TGI: > 100 µM
CAKI-1 renal
  GI50: > 100 µM
  TGI: > 100 µM
CCRF-CEM leukemia
  GI50: > 100 µM
  TGI: > 100 µM
A549 NSCLC
  GI50: > 100 µM
  TGI: > 100 µM
KM12 colon
  GI50: > 100 µM
  TGI: > 100 µM

## CN(c1ccc(NC(=O)NCCN2CCOCC2)cc1)c1ccnc(Nc2ccc(CS(C)(=O)=O)cc2)n1
UO-31 renal
  GI50: > 25 µM
  TGI: > 25 µM
U251 CNS
  GI50: > 25 µM
  TGI: > 25 µM
SK-MEL-2 melanoma
  GI50: > 25 µM
  TGI: > 25 µM
OVCAR-3 ovarian
  GI50: > 25 µM
  TGI: > 25 µM
K-562 leukemia
  GI50: > 25 µM
  TGI: > 25 µM
NCI/ADR-RES ovarian
  GI50: > 25 µM
  TGI: > 25 µM
CAKI-1 renal
  GI50: > 25 µM
  TGI: > 25 µM
CCRF-CEM leukemia
  GI50: > 25 µM
  TGI: > 25 µM
A549 NSCLC
  GI50: > 25 µM
  TGI: > 25 µM
KM12 colon
  GI50: 12.2 µM
  TGI: > 25 µM

## N=C(N)c1ccc(OCCCCCOc2ccc(C(=N)N)cc2)cc1
UO-31 renal
  TGI: > 100 µM
U251 CNS
  GI50: 2.79 µM
  TGI: 13.2 µM and 22.5 µM and 34.5 µM
SK-MEL-2 melanoma
  GI50: 7.11 µM
  TGI: 16.9 µM and 47.1 µM and 22.4 µM
OVCAR-3 ovarian
  GI50: 5.25 µM
  TGI: 15.4 µM and 34.9 µM and 37 µM
K-562 leukemia
  GI50: 2.8 µM
  TGI: 32.7 µM and 15.4 µM and > 100 µM
NCI/ADR-RES ovarian
  GI50: 27.3 µM
  TGI: > 100 µM
CAKI-1 renal
  GI50: 10.3 µM
  TGI: > 100 µM
CCRF-CEM leukemia
  GI50: 23.7 µM and 11.1 µM and 45.1 µM
  TGI: > 50 µM and 60.1 µM and > 100 µM
A549 NSCLC
  GI50: 0.83 µM
  TGI: > 50 µM and 37.1 µM and > 100 µM
KM12 colon
  GI50: 2.5 µM and 6.35 µM and 14.3 µM
  TGI: 14.3 µM and 20.9 µM and 31 µM

## COc1ccc(C(=O)/C=C/c2ccc(OCc3ccccc3)c(OC)c2)cc1OC
UO-31 renal
  GI50: 4.16 µM
  TGI: > 100 µM
U251 CNS
  GI50: 3.51 µM
  TGI: > 100 µM
SK-MEL-2 melanoma
  GI50: 11 µM
  TGI: 36.3 µM
OVCAR-3 ovarian
  GI50: 2.85 µM
  TGI: 8.77 µM
K-562 leukemia
  GI50: 3.4 µM
  TGI: > 100 µM
NCI/ADR-RES ovarian
  GI50: 3.08 µM
  TGI: > 100 µM
CAKI-1 renal
  GI50: 4.07 µM
  TGI: > 100 µM
CCRF-CEM leukemia
  GI50: 3.04 µM
  TGI: 71.2 µM
A549 NSCLC
  GI50: 3.05 µM
  TGI: 29.6 µM
KM12 colon
  GI50: 3.48 µM
  TGI: > 100 µM

## CC(C)C/C(=N\NC(=O)c1ccncc1)c1cc(Cl)ccc1O
UO-31 renal
  GI50: 0.211 µM
  TGI: 18.6 µM
U251 CNS
  GI50: 0.303 µM
  TGI: > 72.1 µM
SK-MEL-2 melanoma
  GI50: 1.87 µM
  TGI: 31.9 µM
OVCAR-3 ovarian
  GI50: 0.204 µM
  TGI: 5.24 µM
K-562 leukemia
  GI50: 0.516 µM
  TGI: > 100 µM
NCI/ADR-RES ovarian
  GI50: 0.289 µM
  TGI: > 23.7 µM
CAKI-1 renal
  GI50: 0.213 µM
  TGI: 12.6 µM
CCRF-CEM leukemia
  GI50: 0.0864 µM
  TGI: > 58.5 µM
A549 NSCLC
  GI50: 0.498 µM
  TGI: > 42.6 µM
KM12 colon
  GI50: 0.389 µM
  TGI: 57.4 µM

## O=S(=O)(NCCCNc1nccc(-c2c(-c3cccc(F)c3)nc3occn23)n1)c1cccc2ccccc12
UO-31 renal
  GI50: 3.25 µM
  TGI: > 100 µM
U251 CNS
  GI50: 8.89 µM
  TGI: > 100 µM
SK-MEL-2 melanoma
  GI50: 6.99 µM
  TGI: > 100 µM
OVCAR-3 ovarian
  GI50: 13.5 µM
  TGI: > 100 µM
K-562 leukemia
  GI50: 2.87 µM
  TGI: > 100 µM
NCI/ADR-RES ovarian
  GI50: 5.52 µM
  TGI: > 100 µM
CAKI-1 renal
  GI50: 3.57 µM
  TGI: > 100 µM
CCRF-CEM leukemia
  GI50: 5.48 µM
  TGI: > 100 µM
A549 NSCLC
  GI50: 6.67 µM
  TGI: > 100 µM
KM12 colon
  GI50: 3.8 µM
  TGI: > 100 µM

## CC(C)c1cc(C(C)C)c(Cl)c(Cl)c1O (tested in a mixture with another compound)
UO-31 renal
  TGI: 57.7 µM
U251 CNS
  TGI: > 100 µM
SK-MEL-2 melanoma
  TGI: 46.5 µM
OVCAR-3 ovarian
  TGI: 60.1 µM
K-562 leukemia
  TGI: 37.9 µM
NCI/ADR-RES ovarian
  TGI: > 100 µM
CAKI-1 renal
  TGI: 47 µM
CCRF-CEM leukemia
  TGI: > 100 µM
A549 NSCLC
  TGI: > 100 µM
KM12 colon
  TGI: 58.1 µM

## Cc1nn2c(-c3nc4cc(Cl)c(Cl)cc4[nH]3)c(-c3ccc(F)cc3)nc2s1
UO-31 renal
  GI50: 1.64 µM
  TGI: 3.93 µM
U251 CNS
  GI50: 2.56 µM
  TGI: 10.5 µM
SK-MEL-2 melanoma
  GI50: 14.2 µM
  TGI: 94.5 µM
OVCAR-3 ovarian
  GI50: 3.26 µM
  TGI: 11.1 µM
K-562 leukemia
  GI50: > 100 µM
  TGI: > 100 µM
NCI/ADR-RES ovarian
  GI50: 2.7 µM
  TGI: > 30.3 µM
CAKI-1 renal
  GI50: 7.09 µM
  TGI: > 59.4 µM
CCRF-CEM leukemia
  GI50: > 100 µM
  TGI: > 100 µM
A549 NSCLC
  GI50: 1.92 µM
  TGI: > 42.3 µM

## N#Cc1cccc(C2C3=C(COC3=O)N(CCO)c3cc4c(cc32)CCC4)c1 (stereo unspecified)
UO-31 renal
  GI50: 0.165 µM
  TGI: > 31.7 µM
U251 CNS
  GI50: 0.196 µM
  TGI: > 50 µM
SK-MEL-2 melanoma
  GI50: 0.319 µM
  TGI: > 44.5 µM
OVCAR-3 ovarian
  GI50: 0.123 µM
K-562 leukemia
  GI50: 0.0732 µM
  TGI: > 50 µM
NCI/ADR-RES ovarian
  GI50: 0.15 µM
  TGI: > 50 µM
CAKI-1 renal
  GI50: 0.109 µM
  TGI: > 50 µM
CCRF-CEM leukemia
  GI50: 0.187 µM
  TGI: > 50 µM
A549 NSCLC
  GI50: 0.23 µM
  TGI: > 50 µM
KM12 colon
  GI50: 0.136 µM
  TGI: > 50 µM

## C=CC[PH+](c1ccccc1)c1ccccc1.C=CC[PH+](c1ccccc1)c1ccccc1.[Pt+2].[S-]c1ncccn1.[S-]c1ncccn1
UO-31 renal
  GI50: 3.75 µM
  TGI: 18 µM
U251 CNS
  GI50: 23.4 µM
  TGI: > 100 µM
SK-MEL-2 melanoma
  GI50: 47.4 µM
  TGI: > 100 µM
OVCAR-3 ovarian
  GI50: 2.88 µM
  TGI: 9.49 µM
K-562 leukemia
  GI50: 2.99 µM
  TGI: > 100 µM
NCI/ADR-RES ovarian
  GI50: 22.9 µM
  TGI: > 100 µM
CAKI-1 renal
  GI50: 7.66 µM
  TGI: 29.2 µM
CCRF-CEM leukemia
  GI50: 3.17 µM
  TGI: > 100 µM
A549 NSCLC
  GI50: 26.3 µM
  TGI: > 100 µM
KM12 colon
  GI50: 28.4 µM
  TGI: > 100 µM
